US20210308144A1 (priority 2021, published 2021)
Like-named read-outs stand apart in the source and are kept apart here.

Columns and labels:
[1] = molecular target: T1, human aromatase enzyme (human placental microsomes) (Homo sapiens, UniProt P11511); experiment: Human placental aromatase inhibition assay; format: biochemical
T1 construct: evaluated against human placental microsomes (aromatase enzyme); from tissue; host or cells: human placenta (microsomes)
T1 sequence (P11511 1-503): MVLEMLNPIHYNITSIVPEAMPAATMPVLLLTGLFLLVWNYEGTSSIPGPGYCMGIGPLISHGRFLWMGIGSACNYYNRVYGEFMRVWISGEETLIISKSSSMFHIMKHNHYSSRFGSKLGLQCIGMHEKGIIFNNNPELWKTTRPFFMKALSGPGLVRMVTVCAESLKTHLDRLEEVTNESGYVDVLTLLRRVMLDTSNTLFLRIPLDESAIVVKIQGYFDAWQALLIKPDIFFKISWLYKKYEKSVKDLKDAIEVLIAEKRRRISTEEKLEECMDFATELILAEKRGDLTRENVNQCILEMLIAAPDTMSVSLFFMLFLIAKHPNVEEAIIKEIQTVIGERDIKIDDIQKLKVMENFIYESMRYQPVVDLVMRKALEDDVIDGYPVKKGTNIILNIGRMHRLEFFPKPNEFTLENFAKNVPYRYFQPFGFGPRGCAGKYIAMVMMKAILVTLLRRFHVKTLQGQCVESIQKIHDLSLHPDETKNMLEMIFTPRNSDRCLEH

[2] = tested on: BJ (human fibriblast) cell line; experiment: Cytotoxicity against BJ (human fibroblast) cell line
[3] = human placental microsomes, testosterone to 17β-estradiol conversion, UPLC, read-out: IC50 against human aromatase

| Structure (SMILES) | IC50 [1] [nM] | cytotoxicity against BJ cell line [2] | IC50 [1, 3] [nM] |
| --- | --- | --- | --- |
| C=C1C[C@@H]2[C@H]([C@H](O)C[C@]3(C)[C@@H](O)CC[C@@H]23)[C@@]2(C)C=CC(=O)C=C12 [Compound 8, 11α,17β-dihydroxy-6-methylene-androsta-1,4-diene-3-one] | 12800 ± 844 | non-cytotoxic | – |
| CCCCCCC(=O)O[C@H]1CC[C@H]2[C@@H]3CC[C@H]4CC(=O)[C@H](C)C[C@]4(C)[C@H]3CC[C@]12C [Compound 3, drostanolone enanthate, reference compound] | – | – | 6.4 ± 0.06 |
| CC1=CC(=O)C=C2CC[C@@H]3[C@H](CC[C@]4(C)C(=O)CC[C@@H]34)[C@@]12C [Compound 1, atamestane, reference compound] | – | – | 13.8 ± 0.2 |
| CC1=C[C@@]2(C)C(=CC1=O)CC[C@H]1[C@@H]3CC[C@H](O)[C@@]3(C)[C@H](O)C[C@@H]12 [Compound 4, 2-methylandrosta-12β,17β-dihydroxy-1,4-diene-3-one] | – | non-cytotoxic | 4.23 ± 0.133 |
| C[C@@H]1C[C@@]2(C)[C@@H](CC[C@H]3[C@@H]4CC[C@H](O)[C@@]4(C)CC[C@@]32O)CC1=O [Compound 5, 2α-methyl-9α,17β-dihydroxy-5α-androstan-3-one] | – | non-cytotoxic | 793 ± 29.9 |
| CC1=CC(=O)C=C2CC[C@@H]3[C@H](CC[C@]4(C)C(=O)CC[C@@]34O)[C@@]12C [Compound 2, 14α-hydroxy-1-methylandrosta-1,4-diene-3,17-dione] | – | non-cytotoxic | 9.7 ± 0.72 |
